Results on 3 molecules are retold here after patent US20240197900A1, “DISACCHARIDE LINKER, DISACCHARIDE-SMALL MOLECULE DRUG CONJUGATE AND SUGAR CHAIN FIXED-POINT ANTIBODY-DRUG CONJUGATE, AND PREPARATION METHOD THEREFOR AND USE THEREOF” (priority 2021, published 2024).

The target in this assay is Endo-S2 (Streptococcus pyogenes serotype M49, UniProt T1WGN1). In words: Screening of sugar substrates: transfer of oxazoline substrates to deglycosylated antibody by Endo-S2. It is filed as biochemical. The following applies: substrate 1.5 mM, (Fuc α1,6)GlcNAc-Herceptin 5 mg/mL, Endo-S2 0.2 mg/mL, 3 h; for recognition by / transfer activity of Endo-S2 (in words): 30° C., FIG. 1B. How it is done: Different sugar substrates (1 equivalent, including monosaccharide, disaccharide and trisaccharide structures) were weighed and dissolved in 50 mM PB, pH 7.0 buffer, CDMBI (5 equivalents) was added to the above system, mixed well and cooled to 0° C. Potassium phosphate (15 eq) was added, the final concentration of the sugar substrates in the reaction system was 10 mM, and the reaction was carried out at 0° C. for 2 h. Plenty of precipitate was observed, which was removed by centrifugation. The supernatant was oxazoline substrates G1, G12, G15-G20 containing salts, which were directly used for the next step of screening.
Endo-S2, sequence (T1WGN1 37-843): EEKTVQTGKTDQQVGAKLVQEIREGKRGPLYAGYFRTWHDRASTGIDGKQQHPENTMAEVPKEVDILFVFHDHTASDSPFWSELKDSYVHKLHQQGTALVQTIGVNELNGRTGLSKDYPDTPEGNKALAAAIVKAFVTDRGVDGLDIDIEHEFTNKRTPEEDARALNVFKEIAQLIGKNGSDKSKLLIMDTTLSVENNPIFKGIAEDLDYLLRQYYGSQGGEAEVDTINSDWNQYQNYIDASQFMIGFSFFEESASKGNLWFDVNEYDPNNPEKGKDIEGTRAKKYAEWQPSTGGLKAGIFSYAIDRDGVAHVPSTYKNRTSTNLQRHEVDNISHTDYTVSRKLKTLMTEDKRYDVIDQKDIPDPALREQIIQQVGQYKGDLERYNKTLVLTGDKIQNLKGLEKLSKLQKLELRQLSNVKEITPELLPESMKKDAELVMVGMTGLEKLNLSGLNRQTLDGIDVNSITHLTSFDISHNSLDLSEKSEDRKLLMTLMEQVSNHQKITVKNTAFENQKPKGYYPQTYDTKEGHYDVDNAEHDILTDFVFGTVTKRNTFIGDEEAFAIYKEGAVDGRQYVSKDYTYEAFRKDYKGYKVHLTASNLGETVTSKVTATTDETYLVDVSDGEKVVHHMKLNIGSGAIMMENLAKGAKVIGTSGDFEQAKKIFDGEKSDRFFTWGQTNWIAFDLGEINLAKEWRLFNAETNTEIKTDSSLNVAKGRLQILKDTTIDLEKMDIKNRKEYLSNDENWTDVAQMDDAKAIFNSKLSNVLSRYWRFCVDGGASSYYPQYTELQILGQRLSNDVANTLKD
Oxazoline substrates (G1, G12, G15-G20), deglycosylated antibody (Fuc α1.6) GlcNAc-Herceptin and endoglycosidase Endo-S2 were sequentially added to 50 mM Tris-HCl, pH 7.2 buffer, such that the final concentrations of each were 1.5 mM, 5 mg/mL, and 0.2 mg/mL, respectively, which was incubated at 30° C. for 3 h for detection by mass spectrometry. At the same time, a control group without endoglycosidase was set to eliminate the influence of non-enzymatic reactions.

As for `CC1=NC2[C@@H](O1)OC(CO)[C@@H](O[C@@H]1OC(CO)[C@H](O)[C@H](O)C1O)[C@@H]2O` (stereo partly drawn) [G1], the “transfer efficiency to the deglycosylated antibody” value (Tris-HCl pH 7.2, 30° C., mass spectrometry) amounted to 68%.
Regarding `CC(=O)N[C@H]1C([C@H](O)[C@H](O)CO)O[C@@](OCC2O[C@@H](O[C@@H]3C(CO)O[C@@H]4OC(C)=NC4[C@H]3O)C(O)[C@@H](O)[C@H]2O)(C(=O)O)C[C@H]1O` (stereo partly drawn) [G12], the “recognition by / transfer activity of Endo-S2 (in words)” value is listed as “well recognized”.
On the same count and under the same terms, in the case of `CC1=NC2C(O[C@@H]3OC(C)[C@@H](O)C(O)C3O)[C@H](O[C@@H]3OC(CO)[C@H](O)C(O)C3O)C(CO)O[C@@H]2O1` (stereo partly drawn) [G20] it was “greatly reduced”.
